Where two headings read alike, the source gives them in different places.
What was measured:
[1] = in vivo; cited from earlier work
rhesus monkeys = settings: sleep deprivation; cited from earlier work
[2] = system: humans subjected to simulated night shift work; settings: cited from earlier work
[3] = in vivo; cited from earlier work; remark: listed apart in the source
[4] = system: children aged 7 to 15 with ADHD; settings: cited from earlier work; for ADHD symptoms and global ratings: parent and clinician ratings, 9 weeks
[5] = system: metastatic renal cell carcinoma; settings: continuous infusion, 70% of the daily dose between 15:00 h and 21:00 h; cited from earlier work
arthritis = settings: night versus 8:00 am; cited from earlier work
[6] = system: sleep-deprived F-117 pilots; settings: 300 mg in three divided 100-mg doses; cited from earlier work
helicopter pilots = settings: 600 mg in three doses, 8 hours of sleep in an 88 hour period; cited from earlier work
[7] = low, medium and high concentrations, 16 hours, 12 human subjects
Description: The device, described herein, was tested on 12 healthy male volunteers for an open, three-periods, single center, dose-escalation study using nicotine as the model compound.

[8] = human cadaver skin dermatomed to 0.5 mm, 10 cm^2, 100 mg/ml in ethanol/water 1/1, 200 ul doses, EVA membrane
Description: The area of skin permeation was 10 cm^2. […] Each time, 200 µl of formulation was dispensed on a 10 cm^2 surface area of interface of diffusion, separated from the skin by the EVA membrane. […] Additionally, the dose quantity was strictly controlled and monitored. Drug flux samples were obtained using a flow-through Franz cell permeation system with samples collected every 15 minutes. Hourly time point samples were analyzed and recorded. Samples were analyzed by UV/Vis spectrophotometry.

[9] = oral dosing with 5 mg or transdermally with 39 mg; cited from earlier work
[10] = evening versus morning; cited from earlier work
smoking = settings: in vivo; cited from earlier work

Q: For `O=C(C[S+]([O-])C(c1ccccc1)c1ccccc1)NO` (stereo not shown) [Adrafinil], which half-life [1] is on record?
A: about 60 minutes

Q: What about the “time to peak concentration” value [1] of the same compound?
A: about 60 minutes

Q: Which results are given for `O=C(c1ccc2nonc2c1)N1CCOCC1` [CX717]?
A: performance after receiving the drug (rhesus monkeys): performed faster and better; cognitive performance [2]: did not improve cognitive performance

Q: For `CNCC[C@@H](Oc1ccccc1C)c1ccccc1` [atomoxetine], which half-life average [3] is on record?
A: 3.12 h

Q: And the “time of peak plasma concentration after dosing” value [3]?
A: 1 to 2 h

Q: What about the tolerability ([4]; in vivo) of the same compound?
A: well tolerated

Q: What about the “ADHD symptoms and global ratings” value [4] of the same compound?
A: associated with reductions in ADHD symptoms and improved global ratings

Q: For `O=c1[nH]c(=O)n([C@H]2C[C@H](O)[C@@H](CO)O2)cc1F` [fluorodeoxyuridine], which objective response [5] is on record?
A: 29%

Q: With `COc1ccc2c(c1)c(CC(=O)O)c(C)n2C(=O)c1ccc(Cl)cc1` [indomethacin] as the compound, how does the “efficacy and patient compliance by time of dosing” value (arthritis) read?
A: better efficacy and patient compliance when dosed at night than when dosed at 8:00 am

Q: Which results are given for `COC(=O)C(c1ccccc1)C1CCCCN1` (stereo not shown) [methylphenidate]?
A: tolerability ([4]; atomoxetine twice daily, methylphenidate 2 or 3 times daily): well tolerated; ADHD symptoms and global ratings [4]: associated with reductions in ADHD symptoms and improved global ratings

Q: With `NC(=O)C[S+]([O-])C(c1ccccc1)c1ccccc1` (stereo not shown) [modafinil] as the compound, how does the “flight control accuracy sustained to within percent of baseline levels” value [6] read?
A: about 27%

Q: What about the alertness of pilots (helicopter pilots) of the same compound?
A: can be used to keep pilots alert

Q: Which “blood plasma concentration profile” value [7] does the source give for `CN1CCCC1c1cccnc1` (stereo not shown) [nicotine] here?
A: clear and distinct peaks and troughs of therapeutically effective and well-targeted blood plasma concentration levels

Q: And the “maximum transdermal flux value” [8]?
A: 160 ng/cm^2/hr

Q: For `CCN(CC)CC#CCOC(=O)C(O)(c1ccccc1)C1CCCCC1` (stereo not shown) [oxybutynin], which “mean maximum blood plasma concentration” value [9] is on record?
A: 3 ng/mL

Q: With `CCCC(CCC)C(=O)O` [valproate] as the compound, how does the “absorption by time of day” value [10] read?
A: absorb it more slowly and less efficiently when they take it in the evening than in the morning

Q: Which “chances of quitting smoking” value (smoking) does the source give for `c1cnc2cc3c(cc2n1)[C@@H]1CNC[C@H]3C1` [varenicline] here?
A: can more than double the chances of quitting smoking

Source: US9669199B2, “Biosynchronous transdermal drug delivery for longevity, anti-aging, fatigue management, obesity, weight loss, weight management, delivery of nutraceuticals, and the treatment of hyperglycemia, alzheimer's disease, sleep disorders, parkinson's disease, aids, epilepsy, attention deficit disorder, …” (Chrono Therapeutics Inc., priority 2004, dated 2017)
